The values below come from paper PMC9469649 (Bioorganic & medicinal chemistry letters, 2022).

The structures appear in SMILES notation.

The target in assay [1] is Kv7.2 wild type (WT) channels (Homo sapiens, UniProt O43526). The assay can be described thus: SyncroPatch 384PE automated whole cell patch-clamp, wild type Kv7.2. The class given is cell-based. A general note: In patch-clamp work, channel activity is measured electrically.
Another assay has as its system Kv7.3 over Kv7.2. To be noted: cited from earlier work.
Assay [2] deals with Kv7.2/7.3 heterotetramers (Homo sapiens, UniProt O43525+O43526). Description: Whole cell patch-clamp electrophysiology, transfected CHO cells, Kv7.2/7.3. The class given is cell-based.

Chain of Kv7.2 wild type (WT) channels (O43526 whole entry): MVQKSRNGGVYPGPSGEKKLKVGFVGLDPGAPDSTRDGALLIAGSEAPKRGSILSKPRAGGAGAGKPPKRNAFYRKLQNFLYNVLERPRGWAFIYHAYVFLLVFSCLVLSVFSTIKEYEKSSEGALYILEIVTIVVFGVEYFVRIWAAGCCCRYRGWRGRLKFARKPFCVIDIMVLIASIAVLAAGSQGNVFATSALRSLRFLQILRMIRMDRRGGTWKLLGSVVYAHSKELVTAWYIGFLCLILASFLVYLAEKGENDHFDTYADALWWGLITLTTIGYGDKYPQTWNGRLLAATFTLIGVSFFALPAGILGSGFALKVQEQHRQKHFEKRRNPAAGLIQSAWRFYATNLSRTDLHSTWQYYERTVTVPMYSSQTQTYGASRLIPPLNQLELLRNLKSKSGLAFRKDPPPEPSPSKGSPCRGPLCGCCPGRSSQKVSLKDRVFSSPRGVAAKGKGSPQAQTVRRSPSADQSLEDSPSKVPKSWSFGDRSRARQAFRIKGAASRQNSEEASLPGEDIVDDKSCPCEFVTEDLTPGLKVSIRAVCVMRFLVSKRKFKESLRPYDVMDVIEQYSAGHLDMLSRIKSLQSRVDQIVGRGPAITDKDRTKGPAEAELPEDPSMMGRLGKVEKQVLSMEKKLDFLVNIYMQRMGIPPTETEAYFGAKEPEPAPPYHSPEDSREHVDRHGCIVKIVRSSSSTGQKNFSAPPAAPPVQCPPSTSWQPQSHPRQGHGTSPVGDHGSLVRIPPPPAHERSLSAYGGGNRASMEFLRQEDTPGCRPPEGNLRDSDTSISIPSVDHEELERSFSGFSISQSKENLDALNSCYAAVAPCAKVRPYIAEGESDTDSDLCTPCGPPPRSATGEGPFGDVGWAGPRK

As for `[2H]c1cc(NC(=O)OCC)c(N)c(F)c1NCc1ccc(C(F)(F)F)cc1` [RL-25], in assay [1] (from EC50 values, Table 2), the “activity on Kv7.2 relative to RL-71 (less active)” value is given as 20 fold and the “potency on Kv7.2 relative to retigabine (more potent)” value is on record as 4 fold.
`CCOC(=O)Nc1cc(F)c2c(c1N)S(=O)(=O)CC(c1ccccc1)N2` (centres unmarked) [CH-02]: in assay [1] (SyncroPatch screen, 5 μM), the “Kv7.2 channel activity” value is “completely inactive”.
For `CCOC(=O)Nc1ccc(NCc2ccc(F)cc2)cc1N` [Retigabine, retigabine], the “lower EC50 for Kv7.3 over Kv7.2” value with Kv7.3 over Kv7.2 is “ca. 4 fold”.
For `Nc1c(NC(=O)OC2CC2)ccc(NCc2ccc(C(F)(F)F)cc2)c1F` [RL-56], the EC50 in assay [2] was about 20 nM.

For orientation: EC50 means the concentration giving half of the maximal effect. A low value points to higher potency in that assay.
